target: T1, human CRTH2 (Homo sapiens, UniProt Q9Y5Y4); test: Human CRTH2 Receptor Binding Assay (whole cell, [3H]ramatroban competition); parameters: expressed in transfected cells; host or cells: CHO-K1 (co-transfected with G-alpha16); conditions: CHO-K1 cells expressing human CRTH2 and G-alpha16; 20 nM [3H]ramatroban; 1 hour, room temperature
T1 sequence (Q9Y5Y4 1-395): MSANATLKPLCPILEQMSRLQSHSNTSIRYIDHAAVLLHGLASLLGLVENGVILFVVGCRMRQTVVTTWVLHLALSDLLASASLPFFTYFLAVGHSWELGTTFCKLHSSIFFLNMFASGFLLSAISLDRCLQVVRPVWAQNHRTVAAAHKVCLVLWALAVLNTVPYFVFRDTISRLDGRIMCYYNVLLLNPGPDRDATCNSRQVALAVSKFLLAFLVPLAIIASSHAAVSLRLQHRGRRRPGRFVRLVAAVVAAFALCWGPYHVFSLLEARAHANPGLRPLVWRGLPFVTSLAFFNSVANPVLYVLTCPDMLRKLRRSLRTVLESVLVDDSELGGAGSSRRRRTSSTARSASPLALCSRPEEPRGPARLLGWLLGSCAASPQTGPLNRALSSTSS
Text: A whole cell receptor binding assay using [^3H]ramatroban as the competing radioactive ligand was employed to evaluate the compound binding activity to human CRTH2. The radioactive ligand [^3H]ramatroban was synthesized according to Sugimoto et. al. (Eur. J. Pharmacol. 524, 30-37, 2005) to a specific activity of 42 Ci/mmol.
A cell line stably expressing human CRTH2 was established by transfecting CHO-K1 cells with two mammalian expression vectors that harbored human CRTH2 and G-alpha16 cDNAs, respectively, using FuGene® 6 transfection reagent (from Roche). Stable clones expressing CRTH2 were selected by staining each clone with BM16 (BD Pharmingen™ from BD Biosciences, a division of Becton, Dickinson and Company), which is a rat monoclonal antibody to human CRTH2. The cells were maintained as monolayer cultures in Ham's F-12 medium containing 10% fetal bovine serum, 100 units/mL penicillin, 100 μg/mL streptomycin, 2 mM glutamine, 0.5 mg/mL G418 (geneticin) for CRTH2, and 0.2 mg/mL hygromycin-B (for G-alpha 16). For whole cell receptor binding assay, the monolayer cells were rinsed once with PBS (phosphate buffered saline), dissociated using ethylenediaminetetraacetate (Versene™ EDTA from Lonza Inc.), and suspended in PBS containing 10 mM MgCl2 and 0.06% BSA (bovine serum albumin) at 1.5×10^6 cells/mL.
The binding reactions (0.2 mL) were performed in 96-well plates at room temperature in PBS containing 1.5×10^5 cells, 10 mM MgCl2, 0.06% BSA, 20 nM [^3H]ramatroban, and test compound at various concentrations. After 1 hour of binding reactions, the cells were harvested on GF™/B filter microplates (microtiter plates with embedded glass fiber from PerkinElmer, Inc.) and washed 5 times with PBS using a Filtermate™ Harvester (a cell harvester that harvests and washes cells from microplates from PerkinElmer, Inc.). The radioactivities bound to the cells were determined using a microplate scintillation counter (TopCount® NXT, from PerkinElmer, Inc.) after adding 50 μL of Microscint™ 20 scintillation fluid (from PerkinElmer, Inc.) to each well of the filter plates. The radioactivity from non-specific binding was determined by replacing compound with 10 μM of 15(R)-15-methyl PGD2 (from Cayman Chemical Company) in the reaction mixtures. The radioactivity bound to the cells in the absence of compound (total binding) was determined by replacing compound with 0.25% of DMSO (dimethyl sulfoxide) in the reaction mixture. Specific binding data were obtained by subtracting the radioactivity of non-specific binding from each binding data.
The IC50 value is defined as the concentration of the tested compound that is required for 50% inhibition of total specific binding. In order to calculate the IC50 value, the percent inhibition data were determined for 7 concentrations for each compound. The percent inhibition for a compound at each concentration was calculated according to the following formula, [1−(specific binding in the presence of compound)/(total specific binding)]×100. The IC50 value was then obtained by fitting the percent inhibition data to a sigmoidal dose-response (4 parameter logistic) model in the XLfit® software Excel add-in program [from ID Business Solutions Ltd., model 205, where F(x)=(A+(B−A)/(1+((C/x)̂D)))].

| Compound | IC50 [nM] |
| --- | --- |
| CN([C@@H]1CCCc2c(OCC(=O)O)cccc21)S(=O)(=O)c1cc(F)cc(C(F)(F)F)c1 [Example 1-1, {(R)-5-[(3-fluoro-5-trifluoromethyl-benzenesulfonyl)-methyl-amino]-5,6,7,8-tetrahydro-naphthalen-1-yloxy}-acetic acid] | 381 |
| O=C(O)COc1cccc2c1CCC[C@H]2NS(=O)(=O)c1cc(Cl)cc(Cl)c1 [Example 10-1, [(R)-5-(3,5-dichloro-benzenesulfonylamino)-5,6,7,8-tetrahydro-naphthalen-1-yloxy]-acetic acid] | 340 |
| O=C(O)COc1cccc2c1CCC[C@H]2NS(=O)(=O)c1cc(F)cc(C(F)(F)F)c1 [Example 10-12, [(R)-5-(3-fluoro-5-trifluoromethyl-benzenesulfonylamino)-5,6,7,8-tetrahydro-naphthalen-1-yloxy]-acetic acid] | 20 |
| CCN(CC)c1cc(C(F)(F)F)cc(S(=O)(=O)N(C)[C@@H]2CCCc3c(OCC(=O)O)cccc32)c1 [Example 4-2, {(R)-5-[(3-diethylamino-5-trifluoromethyl-benzenesulfonyl)-methyl-amino]-5,6,7,8-tetrahydro-naphthalen-1-yloxy}-acetic acid] | 773 |

Continued by falling IC50, values first:

| IC50 [nM] | Compound |
| --- | --- |
| 423 | CN([C@@H]1CCCc2c(OCC(=O)O)cccc21)S(=O)(=O)c1cc(OC2CCCC2)cc(C(F)(F)F)c1 [Example 9-3, {(R)-5-[(3-cyclopentyloxy-5-trifluoromethyl-benzenesulfonyl)-methyl-amino]-5,6,7,8-tetrahydro-naphthalen-1-yloxy}-acetic acid] |
| 399 | CCOc1cc(C(F)(F)F)cc(S(=O)(=O)N(C)[C@@H]2CCCc3c(OCC(=O)O)cccc32)c1 [Example 9-2, {(R)-5-[(3-ethoxy-5-trifluoromethyl-benzenesulfonyl)-methyl-amino]-5,6,7,8-tetrahydro-naphthalen-1-yloxy}-acetic acid] |
| 13 | O=C(O)COc1cccc2c1CCC[C@H]2NS(=O)(=O)c1cc(F)cc(F)c1 [Example 10-5, [(R)-5-(3,5-difluoro-benzenesulfonylamino)-5,6,7,8-tetrahydro-naphthalen-1-yloxy]-acetic acid] |

Source: patent US20100041760A1, “MONOARYL AMINOTETRALINES” (priority 2008, published 2010)
